Test results published in US20230096051A1, “CGRP ANTIGONISTS USEFUL AS TRACER COMPOUNDS FOR POSITRON EMISSION TOMOGRAPHY” (Eli Lilly and Company, priority 2019, published 2023).
Read-outs that look alike come from different tables or passages of the source.

Assay: In vivo rat tracer distribution and brain uptake (LC-MS/MS)
Design: species or system Sprague-Dawley rats
Settings: Sprague-Dawley, iv, 10 μg/kg i.v.
Description: Stock Formulation: Prepare a tracer stock solution at 0.5 mg/mL in 25% HP-BCD/PW (corrected for salt weight). Vortex thoroughly for 30 sec and place in bath sonication for 30 mins. Confirm the stock formulation is a clear solution or homogeneous suspension. Acid (10 μL acetic acid) or base (10 μL 5N NaOH), probe sonication, or a sonic bath may be used to aid in solubilization.
Final Dosing Formulation: If the stock formulation is a solution or homogeneous suspension, allow the stock solution to sit at room temperature for 5 min, and confirm and document the appearance of the stock formulation. Dilute the stock solution to the appropriate dose concentrations with 25% HP-BCD/PW. Vortex the final dosing solutions for 30 sec. Final tracer dosing solution is used for generation of the LC/MS/MS calibration standards in the appropriate matrix.
Study populations: Animal studies are performed under protocols approved by Eli Lilly and Company and PreClinOmics Institutional Animal Care and Use Committee. Twenty Sprague-Dawley rats weighing 200-300 g are obtained from Harlan Sprague Dawley Inc. (Indianapolis, Ind.) and are randomized into 4 groups of 5 animals each. Animals have access to food and water ad libitum before the study.
Live Phase Methods: Five animals per dose group are used. Each animal receives 10 μg/kg of the CGRP tracer compound administered intravenously in the lateral tail vein. Animals are euthanized by cervical dislocation followed by decapitation or live decapitation after 5, 10, 20 or 40 min survival intervals.
Trunk blood is collected in EDTA-coated Eppendorf tubes and stored on wet ice until study completion. The whole brain is rapidly removed, and lightly rinsed with sterile water. Frontal cortex, hippocampus, cerebellum, brainstem, and striatum brain tissues are dissected, weighed, stored in 1.5 mL Eppendorf tubes, and placed on wet ice until completion of live phase study.
Using a drug naïve test subject, blood and seven cortical brain tissues samples are collected for use in generating blank and standard curve samples.
Tissue—Tissue samples are kept on wet ice until the completion of the live phase. Tissue samples collected from test and naïve subjects are homogenized at PreClinOmics (Indianapolis, Ind., USA) and immediately taken to AIT Bioscience (Indianapolis, Ind., USA) on wet ice to be centrifuged along with an excel sheet indicating tissue weights, amount of ACN+0.1% HCOOH added to all tissue samples, and how the naive tissues were spiked for standards. Details on processing at PreClinOmics are as follows:
ACN containing 0.1% HCOOH is added to each tissue sample at a volume of four times the weight of the tissue sample (e.g., Add 600 μL ACN to a 150 mg brain tissue). The sample is homogenized via probe sonication. The standard curve is a 6-point curve with the range of 0.3-60 ng/g, linear regression, correlation coefficient, R^2, minimum of ≥0.95. Calibration standards are prepared from control tissue matrix homogenate (of the same organ) spiked with a calculated volume of standard (prepared from the tracer dosing solution used during the live phase). The homogenized tissue samples and spiked standards are transferred to AIT Bioscience on wet ice. Once at AIT Biosciences, all homogenized samples are centrifuged for 20 min at 14,000 rpm. The supernatant solution is diluted with an internal standard solution (1.0 ng/mL diphenhydramine in water) at a ratio of 1:4. Following dilution of the supernatant, if the total sample volume in the well plate is too small for injection, an additional dilution is performed using the mobile phase, ACN:water:0.1% HCOOH (20:80:0.1), at a ratio of 1:1. This solution is mixed thoroughly and analyzed via LC/MS/MS for tracer compound. Additional dilutions incurred due to small sample volume have an appropriate dilution factor applied during regression analysis.
Blood Samples—Whole blood samples are kept on wet ice until the completion of the live phase. […]

[1] = brain stem, read-out: Mean tracer concentration ± SEM, Brain Stem
[2] = cerebellum, read-out: Mean tracer concentration ± SEM, Cerebellum
[3] = frontal cortex, read-out: Mean tracer concentration ± SEM, Frontal Cortex
[4] = hippocampus, read-out: Mean tracer concentration ± SEM, Hippocampus
[5] = plasma, read-out: Mean tracer conc (plasma) ± SEM
[6] = striatum, read-out: Mean tracer concentration ± SEM, Striatum

concentration at 5 min [1] [ng/g] | concentration at 10 min [1] [ng/g] | concentration at 20 min [1] [ng/g] | concentration at 40 min [1] [ng/g] | concentration at 5 min [2] [ng/g] | concentration at 10 min [2] [ng/g] | concentration at 20 min [2] [ng/g] | concentration at 40 min [2] [ng/g] | concentration at 5 min [3] [ng/g] | concentration at 10 min [3] [ng/g] | concentration at 20 min [3] [ng/g] | concentration at 40 min [3] [ng/g] | concentration at 5 min [4] [ng/g] | concentration at 10 min [4] [ng/g] | concentration at 20 min [4] [ng/g] | concentration at 40 min [4] [ng/g] | concentration at 5 min [5] [ng/mL] | concentration at 10 min [5] [ng/mL] | concentration at 20 min [5] [ng/mL] | concentration at 40 min [5] [ng/mL] | SMILES | also measured
3.69 ± 0.29 | 2.46 ± 0.09 | 1.21 ± 0.08 | 0.41 ± 0.03 | 3.52 ± 0.16 | 1.91 ± 0.05 | 0.9 ± 0.06 | 0.28 ± 0.02 | 4.19 ± 0.29 | 2.27 ± 0.05 | 0.98 ± 0.06 | 0.29 ± 0.02 | 3.52 ± 0.32 | 2.33 ± 0.09 | 1.06 ± 0.07 | 0.33 ± 0.02 | 6.3 ± 0.63 | 3.37 ± 0.37 | 1.72 ± 0.12 | 0.48 ± 0.05 | Cc1cc(N2CCC2)cc(OCc2ccc([C@@H](C)[C@@]3(C)C(=O)NC[C@@H]3CF)cc2)n1 [Example 1, (3R,4R)-3-[(1R)-1-[4-[[4-(azetidin-1-yl)-6-methyl-2-pyridyl]oxymethyl]phenyl]ethyl]-4-(fluoromethyl)-3-methyl-pyrrolidin-2-one] | concentration at 5 min [6]: 3.94 ± 0.32 ng/g; concentration at 10 min [6]: 2.44 ± 0.13 ng/g; concentration at 20 min [6]: 1.12 ± 0.07 ng/g; concentration at 40 min [6]: 0.34 ± 0.02 ng/g
8.73 ± 0.51 | 5.27 ± 0.85 | 2.56 ± 0.33 | 1.08 ± 0.08 | 8.76 ± 0.48 | 4.78 ± 0.78 | 2.08 ± 0.22 | 0.88 ± 0.11 | 9.48 ± 0.57 | 5.07 ± 0.56 | 2.19 ± 0.24 | 0.8 ± 0.09 | 7.66 ± 0.42 | 4.64 ± 0.78 | 2.29 ± 0.36 | 0.74 ± 0.14 | 9.82 ± 0.82 | 5.54 ± 0.8 | 2.88 ± 0.37 | 1.03 ± 0.12 | Cc1cc(N2CC(F)C2)cc(OCc2ccc([C@@H](C)[C@@]3(C)C(=O)NC[C@@H]3C)cc2)n1 [Example 2, (3R,4R)-3-[(1R)-1-[4-[[4-(3-fluoroazetidin-1-yl)-6-methyl-2-pyridyl]oxymethyl]phenyl]ethyl]-3,4-dimethyl-pyrrolidin-2-one] | concentration at 5 min [6]: 9.36 ± 0.54 ng/g; concentration at 10 min [6]: 5.23 ± 0.91 ng/g; concentration at 20 min [6]: 2.42 ± 0.28 ng/g; concentration at 40 min [6]: 1.06 ± 0.16 ng/g
3.13 ± 0.22 | 2.01 ± 0.17 | 1.18 ± 0.06 | 0.42 ± 0.02 | 3.06 ± 0.22 | 1.76 ± 0.13 | 0.88 ± 0.06 | 0.31 ± 0.02 | 3.55 ± 0.33 | 1.92 ± 0.16 | 0.92 ± 0.05 | 0.31 ± 0.02 | 2.9 ± 0.2 | 1.91 ± 0.14 | 1.01 ± 0.06 | 0.34 ± 0.02 | 6.2 ± 0.5 | 3.65 ± 0.26 | 1.94 ± 0.15 | 0.73 ± 0.04 | Cc1cc(N2CC(F)C2)cc(OCc2ccc([C@@H](C)[C@@]3(C)C(=O)NC[C@@H]3CF)cc2)n1 [Example 3, (3R,4R)-3-[(1R)-1-[4-[[4-(3-fluoroazetidin-1-yl)-6-methyl-2-pyridyl]oxymethyl]phenyl]ethyl]-4-(fluoromethyl)-3-methyl-pyrrolidin-2-one] | concentration at 5 min [6]: 3.57 ± 0.28 ng/g; concentration at 10 min [6]: 2.14 ± 0.16 ng/g; concentration at 20 min [6]: 1.09 ± 0.07 ng/g; concentration at 40 min [6]: 0.36 ± 0.04 ng/g
